Reference: ChEMBL document CHEMBL1129191, “Syntheses of trans-3-substituted-CCG-IV analogs and their characterization to ionotropic glutamate receptors” (Bioorg Med Chem Lett, 1996)

Key:
Glutamate NMDA receptor = assay: Compound was evaluated for the inhibition of [3H]CGS-19,755 binding to NMDA receptor from rat brain synaptic membrane.
[1] = target: Glutamate receptor ionotropic, AMPA (Rattus norvegicus, UniProt P19490+P19491+P19492+P19493)
Description: Compound was evaluated for the inhibition of [3H]AMPA binding to Ionotropic glutamate receptor AMPA from rat brain synaptic membrane.

N[C@H](C(=O)O)[C@@H]1C[C@@H]1C(=O)O
IC50 (Glutamate NMDA receptor): 0.0052 µM

CC[C@H]1[C@H](C(=O)O)[C@@H]1[C@H](N)C(=O)O
IC50 (Glutamate NMDA receptor): 2 µM | IC50 [1]: 2 µM

N[C@H](C(=O)O)[C@@H]1[C@@H](COCc2ccccc2)[C@@H]1C(=O)O
IC50 (Glutamate NMDA receptor): 21 µM | IC50 [1]: > 100 µM

C=C[C@H]1[C@H](C(=O)O)[C@@H]1[C@H](N)C(=O)O
IC50 (Glutamate NMDA receptor): 1.2 µM | IC50 [1]: 4 µM

C=C1C[C@@H]([C@H](N)C(=O)O)[C@@H](C(=O)O)C1
IC50 (Glutamate NMDA receptor): > 100 µM | IC50 [1]: 7.5 µM

COC[C@H]1[C@H](C(=O)O)[C@@H]1[C@H](N)C(=O)O
IC50 (Glutamate NMDA receptor): 50 µM | IC50 [1]: 4 µM

C=C(C)[C@H]1CN[C@H](C(=O)O)[C@H]1CC(=O)O [KAINIC ACID]
IC50 (Glutamate NMDA receptor): > 100 µM

CN[C@H](CC(=O)O)C(=O)O [N-METHYL-D-ASPARTIC ACID (NMDA)]
IC50 (Glutamate NMDA receptor): 5.5 µM | IC50 [1]: > 100 µM
